Assay results reported in patent publication US8946124B2, “Substituted 3-(biphenyl-3-yl)-8,8-difluoro-4-hydroxy-1-azaspiro[4.5]dec-3-en-2-ones for therapy and halogen-substituted spirocyclic ketoenols” (Bayer Intellectual Property GmbH, priority 2011, dated 2015).

Legend:
[1] = Octanol/water distribution coefficient (log P/D), isocratic HPLC method; assay type: physicochemical; conditions: pH 7.4; mean (range, n); read-out: logP/D pH 7.4
Description: The distribution coefficient octanol/water P or D is a key parameter for estimating membrane penetration and permeability. It is defined as the ratio of the equilibrium concentrations of a substance in the two-phase system octanol/water.
[formula] P=partition D=distribution c(octanol)=concentration of the substance in the octanol phase c(water)=concentration of the substance in the aqueous phase
It is usually stated in form of the decadic logarithm (log P or log D).
log P describes the distribution behavior of a substance exclusively present in its neutral form. logD describes the distribution behavior of a substance at a certain pH; depending on the ionisation constant pKa of the substance, some of the substance may be present in ionic form, and some in neutral form.
The log P/D of the active compounds was determined using an isocratic HPLC method (HPLC=high performance liquid chromatography) (literature: OECD Guideline for Testing of Chemicals No. 117). The method is based on the correlation of the HPLC retention time of the test substance to that of reference substances with known distribution coefficients.
The test substance was employed as a 10 mM solution in DMSO (DMSO=dimethyl sulfoxide). 10 μl of this solution were made up to 100 μl with a methanol/water mixture in a ratio of 7+3.
The nine reference substances were dissolved individually in methanol. 100 μl each of the stock solutions were added to an HPLC vial and mixed with 300 μl of water.
A formamide solution was used to determine the hold-up time. To this end, 7 mg of formamide were dissolved in 10 ml of methanol. 100 μl of this stock solution were mixed with 500 μl of methanol and 200 μl of water.
All solutions were chromatographed using a flow rate of 1.00 ml/min.
Injection Protocol: formamide, references, test substance 1, test substance 2, . . . , formamide, references.
Evaluation of the retention times was carried out in a diode array detector (DAD) at 200-400 nm. Via the molecular mass, the identity of the test substance was checked using the downstream mass spectrometer.
The HPLC run was evaluated using the Waters software Masslynx 4.1.
The log P/D values were calculated using the software “POW Determination” (proprietary development).

human plasma protein = assay: Plasma protein binding by equilibrium dialysis; assay type: in vitro ADME
Method: (§1) The binding of test substances to plasma proteins is determined by equilibrium dialysis by means of the Ht-dialysis apparatus (96-well) made of Teflon and a semipermeable membrane (regenerated cellulose, MWCO 12-14K). This separates 150 μl each of a plasma side and a buffer side (50 mM phosphate buffer). The test substance is added in 2 concentrations (usually 3 and 0.3 μM) to the plasma side and binds to plasma proteins. The unbound fraction of the test substance passes through the membrane and is distributed on either side until equilibrium is established (after approx. 6-8 h at 37° C.). The substance concentration on the buffer side and the plasma side is determined by LC-MS analysis. For this, both sides are brought by dilution with buffer or plasma to the same matrix (10% plasma) and then precipitated with methanol. The free (unbound) fraction (fu) is calculated from the quotient of the buffer and plasma concentration. Stability tests and recovery tests are run concurrently as controls. In addition, the substance in buffer is dialysed against buffer, to check the nonspecific binding to apparatus and membrane and establishment of equilibrium. Because during incubation the osmotic pressure of the plasma proteins leads to dilution of the plasma (volume shift), this possible error is determined by weighing blank plasma samples and is included in the calculation of fu. Establishment of equilibrium and plasma stability should have a value not lower than 80% and the recovery should be at least 30%. A free fraction of <1% is regarded as high, between 1 and 10% as moderate and >10% as low plasma protein binding.

mouse plasma protein = assay: Plasma protein binding by equilibrium dialysis; assay type: in vitro ADME
Method: as §1

Spodoptera frugiperda = Spodoptera frugiperda test (SPODFR spray treatment); assay type: in vivo; conditions: 500 g/ha, after 7 days
Description: (§2) Solvents: 78.0 parts by weight of acetone

Myzus persicae = assay: Myzus test (MYZUPE spray treatment); assay type: in vivo; conditions: 500 g/ha, after 6 days
Tetranychus urticae = assay: Tetranychus test, OP-resistant (TETRUR spray treatment); assay type: in vivo; conditions: after 6 days
Method: as §2
After 6 days, the effect in % is determined.
Tetranychus Test, OP-Resistant (TETRUR Spray Treatment)

Phaedon cochleariae = assay: Phaedon test (PHAECO spray treatment); conditions: 500 g/ha, after 7 days
plasma proteins of rat = assay: Plasma protein binding by equilibrium dialysis; assay type: in vitro ADME
Method: as §1

[2] = Pharmacokinetic parameters in the rat (i.v. and intragastric); assay type: in vivo; conditions: intragastric vs. i.v.
Method: For this, the test substances were applied in dissolved form both for intravenous, and for intragastric application, wherein compatible solubilizers such as PEG400 and/or ethanol were used in a compatible amount.
The test substances were applied at a dose of 0.1-1 mg/kg. Administration was as a bolus injection in the male rat and as an infusion in the female dog (15 min). At various time points after the bolus injection, and before and after the 15-minute infusion, blood samples of about 100-150 μl were removed via a catheter either from the jugular vein (rat) or from the saphenous vein (dog). Lithium-heparin was added as anticoagulant to the blood samples and they were stored in a refrigerator until required for further processing. After centrifugation of the samples for 15 min at 3000 rpm, an aliquot of 100 μl was taken from the supernatant (plasma) and was precipitated by adding 400 μl of cold ACN or methanol (absolute). The precipitated samples were frozen-out at […] overnight, then centrifuged again at 3000 rpm for 15 min, before 150 μl of the clear supernatant were removed to determine the concentration. The analysis was effected by means of an Agilent 1200 HPLC system with connected LCMS/MS detection. […]

[3] = Maximum tolerated dose (MTD) in the mouse; assay type: in vivo; conditions: female nude mice, 21 days
Method: The MTD was defined as the highest dose which could be administered without any animal dying during the treatment phase, and without any body weight loss of more than 10% compared to the initial weight.
Example 1-1 was administered to female nude mice (NMRI nu/nu):
(§3) Administration route: per os
• (Solutol HS15: polyoxyethylene ester of 12-hydroxystearic acid) Administration volume:10 ml/kg Protocol: see Table 7
The treatment phase was followed by an observation phase of 21 days.

[4] = system: PC-3 prostate carcinoma xenograft; assay: In-vivo efficacy in the PC3 xenograft model in the mouse; conditions: 17 days, 2 administrations per day; for T/C: final tumor weight
Method: as §3
Administration volume: 10 ml/kg

Meloidogyne incognita = Meloidogyne incognita test (MELGIN); assay type: in vivo; conditions: 20 ppm, after 14 days
Method: Solvent: 125 parts by weight of acetone
Containers are filled with sand, solution of active compound, Meloidogyne incognita egg/larvae suspension and lettuce seeds. The lettuce seeds germinate and the plants develop. On the roots, galls are formed. After 14 days, the nematicidal effect in % is determined by the formation of galls. 100% means that no galls have been found; 0% means that the number of galls on the treated plants corresponds to the untreated control.

Lucilia cuprina = Lucilia cuprina test (LUCICU); assay type: in vivo; conditions: 100 ppm, after 2 days
Method: (§4) Solvent: dimethyl sulfoxide
To prepare an appropriate active compound formulation, 10 mg of active compound are mixed with 0.5 ml of dimethyl sulfoxide and the concentrate is diluted with water to the desired concentration. Vessels containing horse meat treated with the active compound preparation of the desired concentration are populated with about 20 Lucilia cuprina larvae.
After 2 days, the kill in % is determined.

Boophilus microplus = Boophilus microplus test (BOOPMI injection); assay type: in vivo; conditions: 20 μg/animal, after 7 days
Method: as §4
To prepare an appropriate active compound formulation, 10 mg of active compound are mixed with 0.5 ml of solvent and the concentrate is diluted with solvent to the desired concentration. The solution of active compound is injected into the abdomen (Boophilus microplus), and the animals are transferred into dishes and kept in a climatized room. The activity is assessed by […] of fertile eggs.
100% means that none of the ticks has laid any fertile eggs.

[5] = 80 mg/kg day 1-3, 70 mg/kg from day 4 onwards, per os

SMILES	chromatographic logD [1]	fu [%] (human) (human plasma protein)	fu [%] (mouse) (mouse plasma protein)	effect in % (caterpillars killed) (Spodoptera frugiperda)	effect in % (aphids killed) (Myzus persicae)	effect in % (spider mites killed) (Tetranychus urticae; 100 g/ha)	effect in % (beetle larvae killed) (Phaedon cochleariae)	also measured
Cc1ccc(-c2ccc(Cl)cc2)cc1C1=C(O)C2(CCC(F)(F)CC2)NC1=O [Example 1-2, 3-(4′-Chloro-4-methylbiphenyl-3-yl)-8,8-difluoro-4-hydroxy-1-azaspiro[4.5]dec-3-en-2-one]	1.73	0.42%	3.49%	100%	100%	100%	100%	–
Cc1ccc(-c2ccc(Cl)cc2)cc1C1=C(O)C2(CCCCC2)NC1=O [V.2-b, 3-(4′-Chloro-4-methylbiphenyl-3-yl)-4-hydroxy-1-azaspiro[4.5]dec-3-en-2-one, reference compound]	2.77	0.36%	2.81%	–	–	–	–	fu [%] (rat) (plasma proteins of rat): 0.71%
Cc1ccc(-c2ccc(Cl)c(F)c2)cc1C1=C(O)C2(CCC(F)(F)CC2)NC1=O [Example 1-1, 3-(4′-Chloro-3′-fluoro-4-methylbiphenyl-3-yl)-8,8-difluoro-4-hydroxy-1-azaspiro[4.5]dec-3-en-2-one]	1.9	–	–	100%	90%	90%	100%	F [2]: 95%; Deaths ([3]; 12.5 mg/kg per os, 1 administration per day): 0 of 4; Deaths ([3]; 25 mg/kg per os, 1 administration per day): 0 of 4; Deaths ([3]; 50 mg/kg per os, 1 administration per day): 0 of 4; Deaths ([3]; 50 mg/kg per os, 2 administrations per day): 0 of 4; Deaths ([3]; 75 mg/kg per os, 1 administration per day): 0 of 4; Deaths ([3]; 100 mg/kg per os, 1 administration per day): 0 of 4; Deaths ([4]; 40 mg/kg per os): 0 of 9; Deaths [4, 5]: 0 of 9; T/C ([4]; 40 mg/kg per os): 0.26; T/C [4, 5]: 0.26
Cc1ccc(-c2ccc(F)cc2)c(C)c1C1=C(O)C2(CCC(F)(F)CC2)NC1=O [Example I-1-a-2]	–	–	–	100%	100%	–	100%	effect in % (spider mites killed) (Tetranychus urticae; 500 g/ha): 100%; nematicidal effect in % (formation of galls) (Meloidogyne incognita): 100%; kill in % (Lucilia cuprina): 100%; effect in % (fertile eggs) (Boophilus microplus): 80%
